System: MV-4-11 cells
Experiment: Gene expression microarray analysis (Affymetrix PrimeView) and GSEA
Type: cell-based, human
Design: RFU PODN (11730768_x_at) / Fold change /veh PODN (11730768_x_at) / RFU LINC00158 (11744669_a_at) / Fold change /veh LINC00158 (11744669_a_at) / RFU DUSP10 (11751237_a_at) / Fold change /veh DUSP10 (11751237_a_at) / RFU ID3 (11757404_x_at) / Fold change /veh ID3 (11757404_x_at) / RFU PLEKHG5 (11737974_s_at) / Fold change /veh PLEKHG5 (11737974_s_at) / RFU LRRC4B (11730491_at) / Fold change /veh LRRC4B (11730491_at) / RFU GIMAP4 (11747438_a_at) / Fold change /veh GIMAP4 (11747438_a_at) / RFU KRT8 (11758183_x_at) / Fold change /veh KRT8 (11758183_x_at) / RFU CNN1 (11734310_a_at) / Fold change /veh CNN1 (11734310_a_at) / RFU VPS37D (11726825_at) / Fold change /veh VPS37D (11726825_at) / RFU C10orf10 (11716522_x_at) / Fold change /veh C10orf10 (11716522_x_at) / RFU KIR2DL2 /// KIR2DL4 /// KIR2DL5A /// KIR2DL5B /// KIR2DS1 /// KIR2DS2 /// KIR2DS3 /// KIR2DS4 /// KIR3DL3 /// KIR3DL3 /// KIR3DS1 (11738374_at) / Fold change /veh KIR2DL2 /// KIR2DL4 /// KIR2DL5A /// KIR2DL5B /// KIR2DS1 /// KIR2DS2 /// KIR2DS3 /// KIR2DS4 /// KIR3DL3 /// KIR3DL3 /// KIR3DS1 (11738374_at) / RFU C1QL1 (11718748_at) / Fold change /veh C1QL1 (11718748_at) / RFU TMPRSS4 (11747572_a_at) / Fold change /veh TMPRSS4 (11747572_a_at) / RFU HAMP (11756126_x_at) / Fold change /veh HAMP (11756126_x_at) / RFU RNFT2 (11725882_a_at) / Fold change /veh RNFT2 (11725882_a_at) / RFU NR4A2 (11747474_a_at) / Fold change /veh NR4A2 (11747474_a_at) / RFU ABCC12 (11746883_a_at) / Fold change /veh ABCC12 (11746883_a_at) / RFU TMEM136 (11760407_x_at) / Fold change /veh TMEM136 (11760407_x_at) / RFU CLDN22 /// WWC2 (11732394_at) / Fold change /veh CLDN22 /// WWC2 (11732394_at) / RFU HLA-DPB1 (11760878_x_at) / Fold change /veh HLA-DPB1 (11760878_x_at) / RFU SPINT1 (11716480_a_at) / Fold change /veh SPINT1 (11716480_a_at) / RFU GAP43 (11754022_s_at) / Fold change /veh GAP43 (11754022_s_at) / RFU A4GNT (11735810_at) / Fold change /veh A4GNT (11735810_at) / RFU PRB3 (11715151_x_at) / Fold change /veh PRB3 (11715151_x_at) / RFU TUBB4B (11761932_at) / Fold change /veh TUBB4B (11761932_at) / RFU CAPN14 (11732068_a_at) / Fold change /veh CAPN14 (11732068_a_at) / RFU TMCC2 (11721928_a_at) / Fold change /veh TMCC2 (11721928_a_at) / RFU IRGQ (11745062_a_at) / Fold change /veh IRGQ (11745062_a_at) / RFU FAM174B (11720279_a_at) / Fold change /veh FAM174B (11720279_a_at) / RFU TMPRSS4 (11748680_a_at) / Fold change /veh TMPRSS4 (11748680_a_at) / RFU FAM212B (11763350_a_at) / Fold change /veh FAM212B (11763350_a_at) / RFU PLEKHG5 (11743358_a_at) / Fold change /veh PLEKHG5 (11743358_a_at) / RFU ZSCAN30 (11745921_a_at) / Fold change /veh ZSCAN30 (11745921_a_at) / RFU CMKLR1 (11741424_a_at) / Fold change /veh CMKLR1 (11741424_a_at) / RFU LOC101060620 /// MAPK8IP1 (11723275_at) / Fold change /veh LOC101060620 /// MAPK8IP1 (11723275_at) / RFU SPTSSB (11747773_x_at) / Fold change /veh SPTSSB (11747773_x_at) / RFU PRSS12 (11739890_at) / Fold change /veh PRSS12 (11739890_at) / RFU BIN1 (11741810_x_at) / Fold change /veh BIN1 (11741810_x_at) / RFU WNT11 (11732464_a_at) / Fold change /veh WNT11 (11732464_a_at) / RFU C10orf10 (11716521_a_at) / Fold change /veh C10orf10 (11716521_a_at) / RFU C5orf56 (11738089_at) / Fold change /veh C5orf56 (11738089_at) / RFU CYB561 (11721691_x_at) / Fold change /veh CYB561 (11721691_x_at) / RFU ANKRD19P (11752326_a_at) / Fold change /veh ANKRD19P (11752326_a_at) / RFU OR2T12 /// OR2T33 /// OR2T8 (11738714_s_at) / Fold change /veh OR2T12 /// OR2T33 /// OR2T8 (11738714_s_at) / RFU VCAN (11748164_a_at) / Fold change /veh VCAN (11748164_a_at) / RFU JSRP1 (11732532_at) / Fold change /veh JSRP1 (11732532_at) / RFU KRTAP10-11 (11738290_x_at) / Fold change /veh KRTAP10-11 (11738290_x_at) / RFU MYO3A (11730013_a_at) / Fold change /veh MYO3A (11730013_a_at) / RFU EBF3 (11725865_a_at) / Fold change /veh EBF3 (11725865_a_at) / RFU CAMK2N1 (11719241_x_at) / Fold change /veh CAMK2N1 (11719241_x_at) / RFU C5orf56 (11738088_a_at) / Fold change /veh C5orf56 (11738088_a_at) / RFU OLFML3 (11715873_a_at) / Fold change /veh OLFML3 (11715873_a_at) / RFU LOC100653217 /// NTM (11731650_a_at) / Fold change /veh LOC100653217 /// NTM (11731650_a_at) / RFU MAPK11 (11762145_a_at) / Fold change /veh MAPK11 (11762145_a_at) / RFU FIZ1 (11724087_x_at) / Fold change /veh FIZ1 (11724087_x_at) / RFU OASL (11726364_x_at) / Fold change /veh OASL (11726364_x_at) / RFU SOX15 (11748057_x_at) / Fold change /veh SOX15 (11748057_x_at) / RFU CD79A (11719716_a_at) / Fold change /veh CD79A (11719716_a_at) / RFU HIST1H1D (11736915_at) / Fold change /veh HIST1H1D (11736915_at) / RFU CASKIN2 (11723855_a_at) / Fold change /veh CASKIN2 (11723855_a_at) / RFU LOC730098 (11760151_x_at) / Fold change /veh LOC730098 (11760151_x_at) / RFU OR4N2 (11742367_at) / Fold change /veh OR4N2 (11742367_at) / RFU PRRT2 (11749266_a_at) / Fold change /veh PRRT2 (11749266_a_at) / RFU SNX32 (11753110_a_at) / Fold change /veh SNX32 (11753110_a_at) / RFU CDHR5 (11726645_a_at) / Fold change /veh CDHR5 (11726645_a_at) / RFU RCAN1 (11760418_a_at) / Fold change /veh RCAN1 (11760418_a_at) / RFU FAM167A (11723789_a_at) / Fold change /veh FAM167A (11723789_a_at) / RFU FAM26E (11764081_at) / Fold change /veh FAM26E (11764081_at) / RFU ISYNA1 (11749810_s_at) / Fold change /veh ISYNA1 (11749810_s_at) / RFU ACY1 (11761880_at) / Fold change /veh ACY1 (11761880_at) / RFU 11764098_at / Fold change /veh 11764098_at / RFU SAMD14 (11745864_x_at) / Fold change /veh SAMD14 (11745864_x_at) / RFU NPB (11741838_a_at) / Fold change /veh NPB (11741838_a_at) / RFU TMPRSS6 (11731388_a_at) / Fold change /veh TMPRSS6 (11731388_a_at) / RFU KRTAP10-2 (11738614_at) / Fold change /veh KRTAP10-2 (11738614_at) / RFU ARHGAP8 /// PRR5-ARHGAP8 (11727945_x_at) / Fold change /veh ARHGAP8 /// PRR5-ARHGAP8 (11727945_x_at) / RFU KRTAP5-7 /// NADSYN1 (11734609_at) / Fold change /veh KRTAP5-7 /// NADSYN1 (11734609_at) / RFU RASL12 (11751679_a_at) / Fold change /veh RASL12 (11751679_a_at) / RFU CDKN2B (11736163_a_at) / Fold change /veh CDKN2B (11736163_a_at) / RFU PRF1 (11729649_at) / Fold change /veh PRF1 (11729649_at) / RFU, ZNF638 /// ZNF638-IT1 / Fold change vs veh, ZNF638 /// ZNF638-IT1 / RFU, PANK3 / Fold change vs veh, PANK3 / RFU, SH3YL1 / Fold change vs veh, SH3YL1 / RFU, ZEB2 / Fold change vs veh, ZEB2 / RFU, NRIP1 / Fold change vs veh, NRIP1 / RFU, PTTG1IP / Fold change vs veh, PTTG1IP / RFU, CAPN2 / Fold change vs veh, CAPN2 / RFU, MED14 / Fold change vs veh, MED14 / RFU, SNORA58 / Fold change vs veh, SNORA58 / RFU, C1orf63 / Fold change vs veh, C1orf63 / RFU, LRRFIP1 / Fold change vs veh, LRRFIP1 / RFU, NDUFAF7 / Fold change vs veh, NDUFAF7 / RFU, SLC12A2 / Fold change vs veh, SLC12A2 / RFU, IBTK / Fold change vs veh, IBTK / RFU, ESF1 / Fold change vs veh, ESF1 / Fold change vs veh, TMEM50B / RFU, TAOK1 / Fold change vs veh, TAOK1 / RFU, ACBD3 / Fold change vs veh, ACBD3 / RFU, TMA16 / Fold change vs veh, TMA16 / RFU, RWDD3 / Fold change vs veh, RWDD3 / RFU, BCAT1 / Fold change vs veh, BCAT1 / RFU, EDEM3 / Fold change vs veh, EDEM3 / RFU, TMEM33 / Fold change vs veh, TMEM33 / RFU, WDR75 / Fold change vs veh, WDR75 / RFU, AHCTF1 / Fold change vs veh, AHCTF1 / RFU, TFRC / Fold change vs veh, TFRC / RFU, ZDHHC17 / Fold change vs veh, ZDHHC17 / RFU, NOM1 / Fold change vs veh, NOM1 / RFU, ARL8B / Fold change vs veh, ARL8B / RFU, ZBTB11 / Fold change vs veh, ZBTB11 / RFU, TAMM41 / Fold change vs veh, TAMM41 / RFU, KIAA1704 /// LOC100996395 / Fold change vs veh, KIAA1704 /// LOC100996395 / RFU, ING1 / Fold change vs veh, ING1 / RFU, TRMT61B / Fold change vs veh, TRMT61B / RFU, FUBP3 / Fold change vs veh, FUBP3 / RFU, TP53 / Fold change vs veh, TP53 / RFU, TNKS2 / Fold change vs veh, TNKS2 / RFU, ZFP14 / Fold change vs veh, ZFP14 / RFU, ACTR2 / Fold change vs veh, ACTR2 / RFU, PPP3R1 / Fold change vs veh, PPP3R1 / RFU, PIK3R1 / Fold change vs veh, PIK3R1 / RFU, HNRNPA1 / Fold change vs veh, HNRNPA1 / RFU, RNF170 / Fold change vs veh, RNF170 / RFU, ZNF28 / Fold change vs veh, ZNF28 / RFU, RNGTT / Fold change vs veh, RNGTT / RFU, OGT / Fold change vs veh, OGT / RFU, BRD1 / Fold change vs veh, BRD1 / RFU, MARS / Fold change vs veh, MARS / RFU, ZNF655 / Fold change vs veh, ZNF655 / RFU, FAHD1 / Fold change vs veh, FAHD1 / RFU, BDP1 / Fold change vs veh, BDP1 / RFU, LRRCC1 / Fold change vs veh, LRRCC1 / RFU, ARID1A / Fold change vs veh, ARID1A / RFU, ZNF146 / Fold change vs veh, ZNF146 / RFU, ZNF330 / Fold change vs veh, ZNF330 / RFU, GPN3 / Fold change vs veh, GPN3 / RFU, C9orf123 / Fold change vs veh, C9orf123 / RFU, N4BP2L2 / Fold change vs veh, N4BP2L2 / RFU, ARFIP1 / Fold change vs veh, ARFIP1 / RFU, FAM179B / Fold change vs veh, FAM179B / RFU, BCL10 / Fold change vs veh, BCL10 / RFU, UHRF1BP1L / Fold change vs veh, UHRF1BP1L / RFU, BET1 / Fold change vs veh, BET1 / RFU, CNOT2 / Fold change vs veh, CNOT2 / RFU, ZNF268 / Fold change vs veh, ZNF268 / Fold change vs veh, ZNF507 / RFU, DGCR2 / Fold change vs veh, DGCR2 / RFU, WDSUB1 / Fold change vs veh, WDSUB1 / Fold change vs veh, HSP90B1 /// MIR3652 / RFU, ADSS / Fold change vs veh, ADSS / RFU, GK / Fold change vs veh, GK / RFU, ZNF148 / Fold change vs veh, ZNF148 / RFU, TAF9 / Fold change vs veh, TAF9 / RFU, SLC1A5 / Fold change vs veh, SLC1A5 / RFU, SLMO2 / Fold change vs veh, SLMO2 / RFU, ABCC4 / Fold change vs veh, ABCC4 / RFU, LOC101060439 /// RAP1B / Fold change vs veh, LOC101060439 /// RAP1B / RFU, RFX7 / Fold change vs veh, RFX7 / RFU, GTPBP10 / Fold change vs veh, GTPBP10 / RFU, CNEP1R1 / Fold change vs veh, CNEP1R1 / RFU, BIVM-ERCC5 /// ERCC5 / Fold change vs veh, BIVM-ERCC5 /// ERCC5 / RFU, ILF3 / Fold change vs veh, ILF3 / RFU 11762660_at / Fold change /veh 11762660_at / RFU VCAN (11757783_s_at) / Fold change /veh VCAN (11757783_s_at) / RFU DDX43 (11728927_at) / Fold change /veh DDX43 (11728927_at) / RFU KRT8 (11758188_x_at) / Fold change /veh KRT8 (11758188_x_at) / RFU NKD1 (11759106_at) / Fold change /veh NKD1 (11759106_at) / RFU SRD5A1 (11742802_a_at) / Fold change /veh SRD5A1 (11742802_a_at) / RFU TPSAB1 /// TPSB2 (11721975_s_at) / Fold change /veh TPSAB1 /// TPSB2 (11721975_s_at) / RFU GSTM3 (11746129_a_at) / Fold change /veh GSTM3 (11746129_a_at) / RFU IL23R (11737362_x_at) / Fold change /veh IL23R (11737362_x_at) / RFU TMEM51 (11727254_a_at) / Fold change /veh TMEM51 (11727254_a_at) / RFU PIWIL2 (11732686_x_at) / Fold change /veh PIWIL2 (11732686_x_at) / RFU ORM1 (11744905_x_at) / Fold change /veh ORM1 (11744905_x_at) / RFU CCDC152 (11743942_at) / Fold change /veh CCDC152 (11743942_at) / RFU ECM1 (11717891_a_at) / Fold change /veh ECM1 (11717891_a_at) / RFU IL23R (11748794_a_at) / Fold change /veh IL23R (11748794_a_at) / RFU TNFAIP8L3 (11732012_x_at) / Fold change /veh TNFAIP8L3 (11732012_x_at) / RFU MBOAT4 (11741988_at) / Fold change /veh MBOAT4 (11741988_at) / RFU 11764193_at / Fold change /veh 11764193_at / RFU TMEM53 (11763286_at) / Fold change /veh TMEM53 (11763286_at) / RFU MAGEB2 (11727129_at) / Fold change /veh MAGEB2 (11727129_at) / RFU TMEM200A (11744735_a_at) / Fold change /veh TMEM200A (11744735_a_at) / RFU CCDC152 (11751479_a_at) / Fold change /veh CCDC152 (11751479_a_at) / RFU FAM211A (11726209_a_at) / Fold change /veh FAM211A (11726209_a_at) / RFU RGS16 (11746705_a_at) / Fold change /veh RGS16 (11746705_a_at) / RFU VCAN (11755009_s_at) / Fold change /veh VCAN (11755009_s_at) / RFU RHOB (11743442_s_at) / Fold change /veh RHOB (11743442_s_at) / RFU RGS16 (11720943_a_at) / Fold change /veh RGS16 (11720943_a_at) / RFU RGS16 (11720944_at) / Fold change /veh RGS16 (11720944_at) / RFU, VPS4B / Fold change vs veh, VPS4B / RFU, CREB1 / Fold change vs veh, CREB1 / RFU, DNAJC13 / Fold change vs veh, DNAJC13 / RFU, GNAQ / Fold change vs veh, GNAQ / RFU, CDK5R1 / Fold change vs veh, CDK5R1 / RFU, ZRANB3 / Fold change vs veh, ZRANB3 / RFU, CUL4A / Fold change vs veh, CUL4A / RFU, CCNY / Fold change vs veh, CCNY / RFU, UFL1 / Fold change vs veh, UFL1 / RFU, COG3 / Fold change vs veh, COG3 / RFU, DIAPH2 / Fold change vs veh, DIAPH2 / RFU, SKA2 / Fold change vs veh, SKA2 / RFU, AFF3 / Fold change vs veh, AFF3 / RFU, LMF1 / Fold change vs veh, LMF1 / RFU, IPO11 / Fold change vs veh, IPO11 / RFU, DFFB / Fold change vs veh, DFFB / RFU, FOXP1 / Fold change vs veh, FOXP1 / RFU, CARD8 / Fold change vs veh, CARD8 / RFU, STRN3 / Fold change vs veh, STRN3 / RFU, ADK / Fold change vs veh, ADK / RFU, RASSF2 / Fold change vs veh, RASSF2 / RFU, WIPF1 / Fold change vs veh, WIPF1 / RFU, LARP1B / Fold change vs veh, LARP1B / RFU, RASA1 / Fold change vs veh, RASA1 / RFU, RB1 / Fold change vs veh, RB1 / RFU, PPFIA1 / Fold change vs veh, PPFIA1 / RFU, MAT2A / Fold change vs veh, MAT2A / RFU, CCT5 / Fold change vs veh, CCT5 / RFU, WDR92 / Fold change vs veh, WDR92 / RFU, CUX1 / Fold change vs veh, CUX1 / RFU, TTC7A / Fold change vs veh, TTC7A / RFU, TMEM135 / Fold change vs veh, TMEM135 / RFU, DEPTOR / Fold change vs veh, DEPTOR / RFU, CPM / Fold change vs veh, CPM / RFU, DNAJB6 / Fold change vs veh, DNAJB6 / RFU, CACNA2D3 / Fold change vs veh, CACNA2D3 / RFU, DTX4 / Fold change vs veh, DTX4 / RFU, TFCP2 / Fold change vs veh, TFCP2 / RFU, GMCL1 /// GMCL1P1 / Fold change vs veh, GMCL1 /// GMCL1P1 / RFU, AEBP2 / Fold change vs veh, AEBP2 / RFU, SNHG1 /// SNORD22 /// SNORD25 /// SNORD26 /// SNORD27 /// SNORD28 /// SNORD29 /// SNORD31 / Fold change vs veh, SNHG1 /// SNORD22 /// SNORD25 /// SNORD26 /// SNORD27 /// SNORD28 /// SNORD29 /// SNORD31 / Fold change (Aza/veh), C12orf56 (ProbeSet 11735607_a_at) / Fold change (ACY-1035/veh), C12orf56 (ProbeSet 11735607_a_at) / Fold change (Aza/veh), FGFR1OP (ProbeSet 11751329_s_at) / Fold change (ACY-1035/veh), FGFR1OP (ProbeSet 11751329_s_at) / Fold change (Aza/veh), VPS36 (ProbeSet 11739960_a_at) / Fold change (ACY-1035/veh), VPS36 (ProbeSet 11739960_a_at) / RFU SYPL1 (11715823_x_at) / Fold change /veh SYPL1 (11715823_x_at) / RFU IGFBP7 (11715501_s_at) / Fold change /veh IGFBP7 (11715501_s_at) / RFU REEP3 (11722064_at) / Fold change /veh REEP3 (11722064_at) / RFU IGLL1 (11728026_x_at) / Fold change /veh IGLL1 (11728026_x_at): dose or concentration left out as unconfirmed
Details: MV-4-11 cells, 48 hours

Nc1ncn([C@@H]2O[C@H](CO)[C@@H](O)[C@H]2O)c(=O)n1 [azacitidine]
RFU ACY1 (11761880_at): 18.62 RFU
